From US9668960B2, “Methods useful in studying or modulating skin or hair pigmentation, plant extracts for use in compositions and cosmetic care method” (L V M H RECHERCHE, priority 2008, dated 2017)

What was measured:
[1] = tested on: Normal human epidermal melanocytes (F52; p5); assay: Melanin assay (melanogenesis) in normal pigmented human melanocytes; type: cell-based; details: 72 h
Experimental: Cells were then washed 3-times with sterile PBS and supplemented with 350 μl of either fresh serum-free RPMI medium (melanoma cells) or starved serum-free and BPE-free melanocyte medium (EM) and incubated at 37° C. and 5% CO2 for 24 h. Cells were then washed with sterile PBS 3-times and incubated with IBMX 1×10^-4 M at 37° C. and 5% CO2 for 12, 24, and 72 h. Cells were then gently washed 3-times with sterile PBS and fixed in ice-cold methanol for 10 minutes at -20° C. Slides were stored at -20° C. until immunocytochemistry was performed. […] The melanin standards were pipetted into a 96 well plate to produce a calibration curve for the assessment of melanin content in the test samples. 400 μl of 1 M NaOH was added to each cell pellet and dissolved on a heat block (100° C.) for 15 minutes. The pellets were vortexed vigorously and the solubilized pellet was pipetted into the same 96-well plate. The optical densities of the sample were read at […] on a DYNEX REVELATION 4.02 program. Melanin content of each test sample was read from the calibration curve. […] In addition IBMX and NH4Cl (positive melanocytic modulators) and niacinamide (negative modulator) were used as controls. Visible change was not particularly evident in normal melanocyte due to their already high basal melanin levels (FIG. 1). By contrast, visible change was evident in melanoma cells basal melanin levels were low (FIG. 2). […] Normal human epidermal melanocytes (Female-52; p5) were treated for 72 h with L-18 (0.001%), L-19 (1%), L-20 (0.5%), L-21 (10 μg/ml), L-22 (1%) and L-23 (0.05 μg/ml). Controls: Melanocytic modulators: IBMX (100 μM), NH4Cl (100 μM), and niacinamide (10 μM). (A) Melanin content was determined spectro-photometrically (475 nm) after sodium hydroxide solubilise (B) Visible change was not particularly evident in these cells due to their already high basal melanin levels. Results were expressed as change in melanin content (pg/cell) compared to unstimulated control levels. Means are ±SEM of 3 independent experiments with *P<0.05, **P<0.01, ***P<0.001. NS-Not Significant

FM55 melanoma cells = assay: Melanin assay (melanogenesis) in moderately-pigmented FM55 melanoma; type: cell-based, human; details: 72 h
Experimental: Cells were then washed 3-times with sterile PBS and supplemented with 350 μl of either fresh serum-free RPMI medium (melanoma cells) or starved serum-free and BPE-free melanocyte medium (EM) and incubated at 37° C. and 5% CO2 for 24 h. Cells were then washed with sterile PBS 3-times and incubated with IBMX 1×10^-4 M at 37° C. and 5% CO2 for 12, 24, and 72 h. Cells were then gently washed 3-times with sterile PBS and fixed in ice-cold methanol for 10 minutes at -20° C. Slides were stored at -20° C. until immunocytochemistry was performed. […] The melanin standards were pipetted into a 96 well plate to produce a calibration curve for the assessment of melanin content in the test samples. 400 μl of 1 M NaOH was added to each cell pellet and dissolved on a heat block (100° C.) for 15 minutes. The pellets were vortexed vigorously and the solubilized pellet was pipetted into the same 96-well plate. The optical densities of the sample were read at […] on a DYNEX REVELATION 4.02 program. Melanin content of each test sample was read from the calibration curve. […] In addition IBMX and NH4Cl (positive melanocytic modulators) and niacinamide (negative modulator) were used as controls. […] Controls: Melanocytic modulators: IBMX (100 μM), NH4Cl (100 μM), and niacinamide (10 μM). (A) Melanin content was determined spectrophotometrically (475 nm) after sodium hydroxide solubilisation. […] (B). Results were expressed as the change in melanin content (pg/cell) compared to unstimulated control levels. Means are ±SEM of 3 independent experiments with *P<0.05, **P<0.01, ***P<0.001.

tyrosinase [2] = assay: DOPA oxidase detection for tyrosinase activity in pigmented normal human melanocytes; type: cell-based; details: 72 h
Experimental: The cells were prepared for SDS-PAGE and transblotted onto PVDF membranes. 70 μg of un-reduced protein extract without boiling was pipetted into the appropriate wells of 8% SDS-PAGE gels. […] The L-DOPA reaction was stopped by washing the membrane in distilled water and the membrane was scanned. […] In addition IBMX and NH4Cl (positive melanocytic modulators) and niacinamide (negative modulator) were used as controls. […] Normal human epidermal melanocytes (Female-52; p5) were treated for 72 h with L-18 (0.001%), L-19 (1%), L-20 (0.5%), L-21 (10 μg/ml), LVMH-22 (1%) and L-23 (0.05 μg/ml). Controls: Melanocytic modulators: IBMX (100 μM), NH4Cl (100 μM), and niacinamide (10 μM). (A) Protein extracts were electroblotted and membranes stained with L-DOPA for the estimation of tyrosinase activity.

tyrosinase [3] = assay: DOPA oxidase detection for tyrosinase activity in FM55 melanoma; type: cell-based, human; details: 72 h
Experimental: The cells were prepared for SDS-PAGE and transblotted onto PVDF membranes. 70 μg of un-reduced protein extract without boiling was pipetted into the appropriate wells of 8% SDS-PAGE gels. […] The L-DOPA reaction was stopped by washing the membrane in distilled water and the membrane was scanned. […] In addition IBMX and NH4Cl (positive melanocytic modulators) and niacinamide (negative modulator) were used as controls. […] Controls: Melanocytic modulators: IBMX (100 μM), NH4Cl (100 μM), and niacinamide (10 μM.). (A) Protein extracts were electroblotted and membranes stained with L-DOPA for the estimation of tyrosinase activity. (B) Densitometric scanning of band intensities and values were expressed as the fold increase compared to unstimulated control levels. Means are ±SEM of 3 independent experiments with *P<0.05, **P<0.01, ***P<0.001.

human Myo-X = assay: Knockdown of Myo-X using siRNA in epidermal melanocytes (western blot, immunofluorescence); type: cell-based
Experimental: (§1) Knockdown of Myo-X using siRNA: A synthetic siRNA targeting human Myo-X (5′-[…]-3′) (SEQ ID No 1) and a non-silencing control, consisting of siRNA that has no known homology with mammalian genes (5′-[…]-3′) (SEQ ID No 2) was obtained from Qiagen, Valencia, Calif. A day before siRNA treatment, 5×10^5 epidermal melanocytes per well were plated onto six-well plates at 50-60% confluency and incubated at 37° C. for 12 h. Cells were then treated for 12 h with a final concentration of 25 nM siRNA by using HiPerFect Transfection Reagent (Qiagen, Valencia, Calif.) following the manufacturer's instructions. Fluorescence microscopy was used to verify that approximately 100% of the cells (using non-silencing control labelled with alexa fluor 488 labels) had taken up the siRNA. At 12 h, the cells from each well were replated into 8-well Lab-Tek® chamber slides. For co-culture studies siRNA treated melanocytes were seeded with normal keratinocytes (passage 2) in 8-well Lab-Tek® chamber slides at a cell density of 2×10^4 cells/well and in a ratio of 1 siRNA treated melanocyte to 10 normal keratinocytes. At 24 h the co-culture were processed for double Immunofluorescence staining with gp100 and cytokeratin or Myo-X to study of the influence of gene knockdown on melanosome transfer, and parallel samples were assayed by immunofluorescence staining and western blot analysis to verify gene knockdown. […]

[4] = tested on: melanosome transfer from melanocytes to keratinocytes; assay: Melanosome transfer after knockdown of Myo-X expression in epidermal melanocytes-keratinocytes co-culture; type: cell-based, human; details: Myo-X-silenced melanocytes cultured with normal keratinocytes 24 h; vs non-silencing control siRNA
Experimental: as §1, with “keratinocytes.” for “keratinocytes. At 24 h the co-culture were processed for double Immunofluorescence staining with gp100 and cytokeratin or Myo-X to study of the influence of gene knockdown on melanosome transfer, and parallel samples were assayed by immunofluorescence staining and western blot analysis to verify gene knockdown.”
Using this assay the rate of melanosome transfer from melanocytes to keratinocytes with non-silencing control siRNA conditions was determined (FIG. 8). […]

[5] = L-18 0.001%, L-19 1%, L-20 0.5%, L-21 10 μg/ml, L-22 1%, L-23 0.05 μg/ml, IBMX 100 μM, NH4Cl 100 μM, niacinamide 10 μM, vs basal

With `Cl.N` [NH4Cl] the “Changes in melanin levels, F52 EM % change” value [1, 5] was “+166.17%”, the “Melanin content, F52 EM (pg/cell)” value ([1]; same doses as E1, basal 35.63) was “(94.83) pg/cell” and the “Changes in melanin levels, FM55 % change” value (FM55 melanoma cells; [5]) was “+478.82%”. For the same compound, the “Melanin content, FM55 (pg/cell)” value (FM55 melanoma cells; same doses as E3, basal 9.92) was “(56.83) pg/cell”, the “effect on melanin content compared with basal levels” value (FM55 melanoma cells; FM55 melanoma cells, doses as E3) was “visible increases in melanogenesis” and the “Changes in tyrosinase activity, F52 EMc % change” value (tyrosinase [2]; [5]) was “+159.63%”. For the same compound, the “effect on tyrosinase (dopa oxidase) activity compared with basal levels” value (tyrosinase [2]; normal melanocytes (EM), doses as E5) was “dramatic increase in dopa oxidase activity of tyrosinase”, the “Changes in tyrosinase activity, FM55 % change” value (tyrosinase [3]; same doses as E5, vs basal) was “+408.27%” and the “effect on tyrosinase (dopa oxidase) activity compared with basal levels” value (tyrosinase [3]; FM55 melanoma cells, doses as E5) was “dramatic increase in dopa oxidase activity of tyrosinase”.

In the case of “siRNA targeting human Myo-X: synthetic siRNA targeting human Myo-X (5′-CAGCGGTATAAGAGAAATCAA-3′), obtained from Qiagen (listed as DNA, chemistry not given here; listed as Homo sapiens)”, the “expression of Myo-X compared to non-silencing control siRNA” value (human Myo-X; 25 nM siRNA, 12 h, immunofluorescence) is reported as “almost completely inhibited”, the “filopodia in Myo-X-silenced melanocytes” value (human Myo-X; anti-gp100 double-immunolabelling) is reported as “absence of filopodia” and the “melanosome transfer reduced by” value [4] is reported as 80%.
